Assay results as given in the supplement of paper PMC11451515.

Columns and labels:
Details in all cases: 48 h
[1] = tested on: SEM cells; experiment: AUC of viability dose-response curve (% viability x log10 dose units); higher = less sensitive
Summary of the method: (§1)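 In 1536-well plates, leukemia cells adapted to each medium (500 or 1000 cells/well) were exposed for 48 h at 37°C to library compounds in DMSO across 11 threefold doses, 47 μM down to 0.79 nM. Viability was read by CellTiter-Glo One luminescence and normalised per plate to DMSO and cell-free wells. A four-parameter log-logistic fit over log10 doses was integrated by trapezoidal rule. This yielded the area under the curve, with over-full-viability curves scaled and quality-control failures dropped.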

[2] = tested on: NOMO1; experiment: as above
Summary of the method: as §1

[3] = tested on: P12-Ichikawa; experiment: as above
Summary of the method: as §1

[4] = tested on: SEM cells; experiment: cell viability relative to DMSO control; higher = less cytotoxic
Summary of the method: (§2)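 NOMO1 or SEM (500 cells/well) or P12-Ichikawa (1000 cells/well) leukemia cells were adapted for at least four passages in each medium. They were seeded in 1536-well plates (5 μl) and pin-dosed with library compounds in DMSO over an 11-point threefold series, 47 μM to 0.79 nM. CellTiter-Glo One luminescence was read after 48 h at 37°C. Viability is the per-plate percentage relative to DMSO wells, with cell-free wells as background.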

[5] = tested on: NOMO1; experiment: as above
Summary of the method: as §2

[6] = tested on: P12-Ichikawa; experiment: as above
Summary of the method: as §2

CC[C@@H]1C(=O)N(C)c2cnc(Nc3ccc(C(=O)NC4CCC(N5CCN(CC6CC6)CC5)CC4)cc3OC)nc2N1C(C)C (some centres undefined)
AUC of viability dose-response curve
Details	[1]	[2]	[3]
HPLM + 10% dialyzed FBS	199	276	201
RPMI 5 mM glucose + 10% FBS	227	259	225
RPMI 5 mM glucose + 10% dialyzed FBS	221	259	225

CC[C@]12CC[C@H]3[C@@H](CCC/4=C/C(=O)CC[C@H]34)[C@@H]1CC[C@@]2(O)C#C
cell viability [%]
Details	[4]	[5]	[6]
HPLM + 10% dialyzed FBS, 0.000781 µM	93.7	100	94.2
HPLM + 10% dialyzed FBS, 0.00234 µM	79.6	92.6	85.6
HPLM + 10% dialyzed FBS, 0.00702 µM	97.7	101	83.8
HPLM + 10% dialyzed FBS, 0.0211 µM	92.4	85.8	87.2
HPLM + 10% dialyzed FBS, 0.0632 µM	103	97.1	104
HPLM + 10% dialyzed FBS, 0.19 µM	83.1	94.4	89.2
HPLM + 10% dialyzed FBS, 0.569 µM	87.8	86.6	68.9
HPLM + 10% dialyzed FBS, 1.71 µM	77.9	72.4	79.3
HPLM + 10% dialyzed FBS, 5.12 µM	83.6	89.2	85.5
HPLM + 10% dialyzed FBS, 15.4 µM	80.9	80.4	82.6
HPLM + 10% dialyzed FBS, 46.1 µM	82.8	69.8	90.5
RPMI 5 mM glucose + 10% FBS, 0.000781 µM	85.7	92.7	86.3
RPMI 5 mM glucose + 10% FBS, 0.00234 µM	102	78.8	88.3
RPMI 5 mM glucose + 10% FBS, 0.00702 µM	102	95	87.2
RPMI 5 mM glucose + 10% FBS, 0.0211 µM	109	88.5	90.4
RPMI 5 mM glucose + 10% FBS, 0.0632 µM	108	81.8	85.1
RPMI 5 mM glucose + 10% FBS, 0.19 µM	85.2	75.1	83.9
RPMI 5 mM glucose + 10% FBS, 0.569 µM	86.9	72.2	75.1
RPMI 5 mM glucose + 10% FBS, 1.71 µM	86.5	76.3	88
RPMI 5 mM glucose + 10% FBS, 5.12 µM	97.9	82.5	86.1
RPMI 5 mM glucose + 10% FBS, 15.4 µM	87.4	73.5	79.6
RPMI 5 mM glucose + 10% FBS, 46.1 µM	96.5	70.8	83.7
RPMI 5 mM glucose + 10% dialyzed FBS, 0.000781 µM	103	82.1	83.3
RPMI 5 mM glucose + 10% dialyzed FBS, 0.00234 µM	90.3	77.5	79.5
RPMI 5 mM glucose + 10% dialyzed FBS, 0.00702 µM	81.9	77.7	88.3
RPMI 5 mM glucose + 10% dialyzed FBS, 0.0211 µM	102	86.6	79.3
RPMI 5 mM glucose + 10% dialyzed FBS, 0.0632 µM	101	75.4	86.7
RPMI 5 mM glucose + 10% dialyzed FBS, 0.19 µM	96.8	77.6	78
RPMI 5 mM glucose + 10% dialyzed FBS, 0.569 µM	101	79.7	81.3
RPMI 5 mM glucose + 10% dialyzed FBS, 1.71 µM	114	78.5	77
RPMI 5 mM glucose + 10% dialyzed FBS, 5.12 µM	94.8	74.1	83.1
RPMI 5 mM glucose + 10% dialyzed FBS, 15.4 µM	111	74.9	73
RPMI 5 mM glucose + 10% dialyzed FBS, 46.1 µM	105	84.5	79.7

AUC of viability dose-response curve
Details	HPLM + 10% dialyzed FBS	RPMI 5 mM glucose + 10% FBS	RPMI 5 mM glucose + 10% dialyzed FBS
[1]	417	448	452
[3]	413	405	386
